Key:
[1] = Trans/cis ratio (Kt/c) of prolyl amide isomers by 500 MHz NMR; format: physicochemical
Experimental: For each of 11-13, the ratio of trans/cis isomers was calculated by integrating as many well-resolved peaks as possible for each isomer, and taking the average of over all peaks for respective isomers (Taylor et al., 2003). The assignment of N-terminal amide geometry for both major and minor isomers of 11-16 was based on multiple GOESY experiments (Stronehouse et al., 1994).
Experiments were undertaken to determine the Kt/c effect of certain fused bicyclic sugar-proline-containing peptides. A very similar profile of Kt/c for the Ac-Gly-GlcPro-NHMe model compounds 14-16 compared to the Ac-GlcPro-NHMe model compounds 11-13 (Table 1) was observed. In CD3OD, there was an increase in the cis-content as the sugar substituent changed from benzyl 14 (<3%), to hydroxyl 15 (15%), to acetate 16 (25%).

[2] = D2O; n.s. = not soluble (footnote b)

| Structure (SMILES) | % cis isomer ([1]; CD3OD, 500 MHz NMR at 25° C.) [%] | Trans/cis ratio (Kt/c) ([1]; CD3OD, 500 MHz NMR at 25° C.) | % cis isomer ([1]; CDCl3, 500 MHz NMR at 25° C.) [%] | Trans/cis ratio (Kt/c) ([1]; CDCl3, 500 MHz NMR at 25° C.) | solubility in solvent [2] | % cis isomer ([1]; D2O, 500 MHz NMR at 25° C.) [%] | Trans/cis ratio (Kt/c) ([1]; D2O, 500 MHz NMR at 25° C.) |
| --- | --- | --- | --- | --- | --- | --- | --- |
| CNC(=O)[C@@H]1C[C@H]2O[C@H](COCc3ccccc3)[C@H](OCc3ccccc3)[C@@H](OCc3ccccc3)[C@H]2N1C(=O)CNC(C)=O [Compound 14, N-Acetyl-glycyl-(2S,3aR,5R,6R,7S,7aS)-6,7-di-O-benzyl-octahydro-5-(phenylmethyl hydroxymethyl)-pyrano[3,2-b]pyrrole-2-carboxamide N′-methylamide] | < 3 | > 30 | 5 | 19 | n.s.^[b] |  |  |
| CNC(=O)[C@@H]1C[C@H]2O[C@H](CO)[C@H](O)[C@@H](O)[C@@H]2N1C(=O)CNC(C)=O [Compound 15, N-Acetyl-glycyl-(2S,3aR,5R,6R,7S,7aS)-6,7-dihydroxy-5-(hydroxymethyl)-octahydro-pyrano[3,2-b]pyrrole-2-carboxamide N′-methylamide] | 15 | 5.7 |  |  |  | 10 | 9 |
| CNC(=O)[C@@H]1C[C@H]2O[C@H](COC(C)=O)[C@H](OC(C)=O)[C@@H](OC(C)=O)[C@H]2N1C(=O)CNC(C)=O [Compound 16, N-Acetyl-glycyl-(2S,3aR,5R,6R,7S,7aS)-6,7-di-O-acetyl-5-(hydroxymethyl-O-acetyl)-octahydro-pyrano[3,2-b]pyrrole-2-carboxamide N′-methylamide] | 25 | 3 | 20 | 4 |  |  |  |
